These results are taken from patent US20250241906A1, “ANABOLIC DRUGS STIMULATING TYPE II COLLAGEN PRODUCTION FROM CHONDROCYTES OR THEIR PROGENITORS” (UNIVERSITY OF CENTRAL FLORIDA RESEARCH FOUNDATION, INC., priority 2022, published 2025).

Structures can show the parent of a compound that is named as a salt.

Experiment [1] deals with type II collagen promoter (COL2A1-Gaussia luciferase) in primary human chondrocytes. The experiment can be described thus: HuCol2gLuc 3D aggregate type II collagen promoter-driven Gaussia luciferase assay. It is filed as cell-based. Conditions: for stimulation of type II collagen production in the screen of natural products: NCI Natural Products Set V, 5 μM continuously, 22-day assay. Here is the method: Chondrogenic Culture. Human COL2A1-GLuc or uninfected cells were thawed and seeded in growth media on synoviocyte matrix at 6,000 cells/cm^2 and expanded to 90-100% confluence in physioxia. Cells were trypsinized (0.25% Trypsin/EDTA; Corning), resuspended in growth media (for monolayer culture) or chondrogenic differentiation media for 3D aggregates (93.24% High-Glucose DMEM (Gibco), 1% dexamethasone 10^−5M (Sigma), 1% ITS+premix (Becton-Dickinson), 1% Glutamax (Hyclone), 1% 100 mM Sodium Pyruvate (Hyclone), 1% MEM Non-Essential Amino Acids (Hyclone), 0.26% L-Ascorbic Acid Phosphate 50 mM (Wako), 0.5% Fungizone (Life Technologies) with TGF-β1 (Peprotech) and seeded as described below.
Generation and Maintenance of 3D aggregates. To generate 3D aggregates, cells were seeded at 50,000 cells per well (in 96-well cell repellent u-bottom plates, GreinerBio) and then centrifuged at 500 RCF, 5 min. For the initial drug screen, aggregates were cultured in basal chondrogenic media (1 ng/ml TGF-β1) alone, with DMSO (vehicle control) or 5 μM of the drug compounds from the NCI library (Natural Products V, NCI). For candidate validation and subsequent studies aggregates were cultured in basal chondrogenic media (10 ng/ml TGF-β1) alone, with DMSO (vehicle control) or compounds as indicated in the results. Aggregates were cultured for three weeks in physioxic conditions, culture medium was sampled and replaced three times a week with fresh medium. An OT-2 (Opentrons) python coded robotic pipette, programmed at an aspiration height of 2 mm from the bottom of the wells and aspiration rate of 40 μl/s was utilized for addition of compound, cell feeding, and media sampling for luciferase assay. After three weeks, cell aggregates were either fixed in neutral buffered formalin for histology or medium removed and aggregates frozen dry (−20° C.) for biochemical assays.
Luciferase Assay. Conditioned culture medium sampled from aggregates in 96-wells (20 μL/well) was assessed using a stabilized Gaussia Luciferase buffer mix (50 µl/well) for a final concentration of 0.09 M MES, 0.15M Ascorbic Acid, and 4.2 μM Coelenterazine in white 96-well plates. Luminescence was measured in a plate reader (25° C., relative light units (RLU), En Vision plate reader). An OT-2 (Opentrons) python coded robotic pipette was utilized for luciferase buffer addition to white plates (GreinerBio).

For experiment [2], the system named is type II collagen promoter (COL2A1-GLuc) in primary rabbit chondrocytes. Put plainly: COL2A1-GLuc primary rabbit chondrocyte 3D aggregate luciferase assay. The experiment is classed as cell-based. Conditions: day 21; for luminescence: basal media alone ~40,000 RLU; for luminescence with a single vitamin or mineral vs basal media alone: one factor at a time. The procedure: Chondrogenic Culture. Rabbit COL2A1-GLuc were thawed and seeded in growth media at 6000 cells/cm^2 and expanded to 90-100% confluence in physioxia. Cells were trypsinized (0.25% Trypsin/EDTA; Corning), resuspended in basal chondrogenic media (93.24% High-Glucose DMEM (Gibco), 1% dexamethasone 10^−5 M (Sigma), 1% ITS+premix (Becton-Dickinson), 1% Glutamax (Hyclone), 1% 100 mM Sodium Pyruvate (Hyclone), 1% MEM Non-Essential Amino Acids (Hyclone), 0.26% L-Ascorbic Acid Phosphate 50 mM (Wako), 0.5% Fungizone (Life Technologies) with TGF-β1 (Peprotech) and seeded as described below.
Generation and Maintenance of 3D Aggregates. To generate 3D aggregates, cells were seeded at 50,000 cells per well (in 96-well cell repellent u-bottom plates, GreinerBio) and then centrifuged at 500 RCF, 5 min. For the TGF-β1 dose response studies, that serve as positive controls for the reporter cells, aggregates were cultured in basal chondrogenic media and different concentrations of TGF-β1 ranging from 0-10 ng/ml. For the DoE studies, aggregates were cultured in basal chondrogenic media (1 ng/ml TGF-β1) as a control or basal media supplemented with vitamins and minerals (Table 3 and Table 5). Plates were cultured for three weeks in physioxia, media was sampled and replaced three times a week with respective medium. An OT-2 (Opentrons) python coded robotic pipette, programmed at an aspiration height of 2 mm from the bottom of the wells and aspiration rate of 40 μl/s was utilized for media preparation, cell feeding, and media sampling for luciferase assay. After three weeks, cell aggregates were either fixed in neutral buffered formalin for histology or medium removed and aggregates frozen dry (−20° C.) for biochemical assays.
Luciferase Assay. Cell culture medium sampled from the seeded 96-wells (20 μL/well) was assessed using a stabilized Gaussia Luciferase buffer at a final concentration of 0.09 M MES, 0.15M Ascorbic Acid, and 4.2 μM Coelenterazine in white 96-well plates. Luminescence was measured in a plate reader (25° C., relative light units, En Vision plate reader). An OT-2 (Opentrons) python coded robotic pipette was utilized for luciferase buffer addition to white plates (GreinerBio).

For experiment [3], the system named is HuCol2gLuc aggregates. The experiment can be described thus: Biochemical assays (DNA, GAG, total collagen) on HuCol2gLuc aggregates. It is filed as cell-based, human. The procedure: Biochemical Assays. Aggregates frozen at day 22, were thawed with PBS, and digested with Papain (25 μg/ml, Sigma, P4762, in 2 mM cysteine; 50 mM sodium phosphate; 2 mM EDTA at a pH 6.5, 100 μl) at 65° C. overnight. Plates were sealed with a qPCR adhesive sealing film (USA Scientific), a silicone sheet, and steel plates clamped to the plate to prevent evaporation during digestion. Half of the digest (50 μl) was transferred to another plate and frozen for hydroxyproline assessment. In the remaining digest, papain was inactivated with 0.1M sodium hydroxide (NaOH, 50 μl) followed by NaOH neutralization (100 mM Na2HPO4, 0.1 N HCL, pH 1.82, 50 μl). To quantitate DNA content, samples of the neutralized digest (20 μl) were combined with buffered Hoechst dye (#33258, 667 ng/ml, phosphate buffer pH 8, 100 μl) and fluorescence measured at an excitation of 365 nm and emission of 460 nm. For GAG assessment, 1,9-Dimethyl-methylene blue solution (195 μl) was added to neutralized digests (5 μl) and absorbance measured at 595 nm and 525 nm. Readings were corrected by subtracting 595 nm reading from 525 nm. Micrograms of DNA and GAG were calculated using a Calf thymus DNA standard (Sigma) or Chondroitin Sulfate standard (Seikagaku Corp.), respectively.
For hydroxyproline (HP) quantification, the frozen digests (50 μl) were thawed at room temperature and incubated overnight at 105° C. with 6M hydrochloric acid (200 μl). Plates were sealed to prevent evaporation. Samples were then dried at 70° C. overnight with a hydroxyproline standard (Sigma). Copper sulfate (0.15 M, 10 μl) and NaOH (2.5 M, 10 μl) were added to each well and incubated at 50° C. for 5 minutes, followed by hydrogen peroxide (6%, 10 μl) for 10 minutes. Sulfuric acid (1.5 M, 40 μl) and Ehrlich's reagent (20 μl) were added and samples incubated at 70° C. for 15 minutes. Absorbance was measured at 505 nm. Micrograms of hydroxyproline were calculated using the standard. Total collagen was calculated by the following formula (μg of HP×7.6=μg Total Collagen).

The subject of experiment [4] is rat knee. Conditions: cited from earlier work.
Where [5] appears, read: validation, donor 2, 10 ng/ml TGF-β1.

Take 6-Hydroxy-2-methoxyaporphine: in experiment [1], the “stimulation of type II collagen production in the screen of natural products” value (from here on “stimulation”) is “stimulate type II collagen”. The same measure, in the same setting: next, `COc1cc2c3c(c1O)-c1cc(O)ccc1CC3N(C)CC2` (centres unmarked) [1,10-Dihydroxy-2-methoxyaporphine]: “stimulate type II collagen”; `Nc1ncnc2c1ncn2C1C=C(CO)C(O)C1O` (centres unmarked) [5-(6-Aminopurin-9-yl)-3-(hydroxymethyl)cyclopent-3-ene-1,2-diol]: “stimulate type II collagen”. As to `COc1cc2c3c(c1O)-c1cc(O)ccc1C[C@@H]3N(C)CC2` [(-)-Apoglaziovine], the “stimulation” value in experiment [1] is on record as “stimulate type II collagen”.

For the compound `c1ccc(N2CCN(Cc3nc4ccccc4[nH]3)CC2)nc1` [ABT 724, reference compound], the “luminescence vs untreated control” value in experiment [1] (donor 2, 0.1 μM or 1 μM) is reported as “no effect”; in experiment [1] (donor 2, 10 μM and 25 μM, from day 8 to day 22) it was “increase in luminescence”. For the same compound, the “cumulative luminescence vs untreated controls” value in experiment [1] (donor 2, 10 μM and 25 μM) is recorded as “significant increase in luminescence”. In the case of `Nc1nc(=O)c2c([nH]1)NCC(CNc1ccc(C(=O)N[C@@H](CCC(=O)[O-])C(=O)[O-])cc1)N2C=O.[Ca+2]` (some centres unmarked) [Calcium folinate, reference compound], the “stimulation” value in experiment [1] is recorded as “stimulate type II collagen”. In the case of `[Cu]` [Copper], the luminescence in experiment [2] is ~40,000 RLU. In the case of `COC(=O)[C@H]1[C@H]2C[C@@H]3c4[nH]c5ccccc5c4CCN3C[C@H]2C[C@@H](OC(=O)c2cc(OC)c(OC)c(OC)c2)[C@@H]1OC` [Drug 204, Deserpidine, reference compound], the “glycosaminoglycan (GAG) content” value in experiment [3] (day 22, donor 1) was “no effect on GAG”; in experiment [3] (day 22, donor 2, untreated 15 μg), 10 µg. Also, the total collagen entry is “no significant increase in total collagen” in experiment [3] (day 22, donor 1) and “no significant increase in total collagen” in experiment [3] (day 22, donor 2, untreated ~14 μg). In addition, the DNA content entry in experiment [3] (day 22, donor 2, vs untreated) is “significant decrease in DNA content”. In addition, the results for the “stimulation” value in experiment [1] (listed as 204) and in experiment [1] (listed as Deserpidine) were “stimulatory effects” and “stimulate type II collagen”, respectively. For the same compound, the “day 22 luminescence normalized to DMSO vehicle control” value in experiment [1] (screen, 5 μM, 1 ng/ml TGF-β1) is on record as “significant increase in luminescence”. The “trend of luminescence over 22 days normalized to DMSO” value in experiment [1] (screen, 5 μM, 1 ng/ml TGF-β1) was “initial decrease in expression with continued increase in luminescence after day 8”. Moreover, the cumulative luminescence entry in experiment [1] (validation, donor 1) is reported as “no significant increase”. Also, the “luminescence over 22 days vs untreated control” value in experiment [1] (validation, donor 1, 10 ng/ml TGF-β1) is “increase in luminescence”; in experiment [1] (setting [5]), “not donor 2”. For `CC(C)=CC(=O)O[C@H]1[C@H]2[C@H](OC(=O)[C@H]2C)[C@H](O)[C@@H](C)[C@@H]2C=CC(=O)[C@]21C` [Fastigilin B], in experiment [1], the “stimulation” value was “stimulate type II collagen”.

For `Cl.Cl.Fc1ccc(N2CCN(CCC3OCCc4ccccc43)CC2)cc1` (centres unmarked) [PNU 96415E, reference compound], in experiment [1] (donor 2, 12.5 μM and 25 μM), the “cumulative luminescence vs untreated controls” value is given as “significant increase in luminescence” and the “luminescence vs untreated controls” value is listed as “increased luminescence”.

Regarding `C=C1C(=O)OC2C1CCC(C)C1(O)C=CC(=O)C21C` (centres unmarked) [Parthenicin], the “stimulation” value in experiment [1] was “stimulate type II collagen”.

Consider `CC(=O)CCCCn1c(=O)c2c(ncn2C)n(C)c1=O` [Pentoxifylline, reference compound], for which the “stimulation” value in experiment [1] is listed as “stimulate type II collagen”. `CC(C)CC(=O)Nc1cncc(-c2ccc3[nH]nc(-c4nc5cncc(-c6cccc(F)c6)c5[nH]4)c3c2)c1` [SM04690, reference compound]: the “in vivo scaled amount” value in experiment [4] is on record as 0.3 μg/rat knee. For the compound `CC[C@]1(O)C[C@H]2CN(CCc3c([nH]c4ccccc34)[C@@](C(=O)OC)(c3cc4c(cc3OC)N(C=O)[C@H]3[C@@](O)(C(=O)OC)[C@H](OC(C)=O)[C@]5(CC)C=CCN6CC[C@]43[C@@H]65)C2)C1` [Vincristine sulfate, reference compound], the “stimulation” value in experiment [1] is “stimulate type II collagen”. In the case of `O=C(O)CCCC[C@@H]1SC[C@@H]2NC(=O)N[C@@H]21` [Vitamin B7, Biotin], in experiment [2], the luminescence is recorded as ~40,000 RLU and the “luminescence with a single vitamin or mineral vs basal media alone” value (“luminescence … vs basal media alone” below) is reported as “higher luminescence”.

In the case of `[Cr]` [chromium, Chromium], in experiment [2], the “luminescence … vs basal media alone” value is recorded as “higher luminescence”. `[Co]` [cobalt, Cobalt]: in experiment [2], the “luminescence … vs basal media alone” value is recorded as “higher luminescence”.

In the case of `N[C@@H](Cc1cc(I)c(Oc2cc(I)c(O)c(I)c2)c(I)c1)C(=O)O` [thyroxine, Thyroxine], in experiment [2], the “luminescence … vs basal media alone” value was “higher luminescence”. Promoline [Drug 84]: the “luminescence over 22 days vs untreated control” value in experiment [1] (setting [5]) is listed as “increased luminescence”.

Vitamin A: the “luminescence … vs basal media alone” value in experiment [2] was “detrimental to chondrogenesis”.
